For one assay, the system named is B. subtilis. Briefly: Antimicrobial activity (zone of inhibition) of treated cotton fabric. The following applies: aqueous solution applied to cotton fabric; observation over all plates. It counts as cell-based. From the text: (§1) Each aqueous solution prepared and applied to cotton fabric and tested for antimicrobial activity.
(§2) In Table 2, below, “5+” represents a zone of inhibition ranging 41 mm to 50 mm; “4+” represents a zone of 31 mm to 40 mm; “3+” represents a zone of 21 mm to 30 mm; “2+” represents a zone of 11 mm to 20 mm; “1+” represents a zone of 1 mm to 10 mm; and “−” represents no antimicrobial activity noted.
(§3) The American Association of Textile Chemists and Colorists (AATCC) test method 147, Antibacterial Assessment of Textile Materials was used to qualitatively test the biocidal efficacy of pretreatment solutions according to an embodiment of the present invention. Test material was aseptically transferred directly onto the surface of an inoculated nutrient agar slurry. After a specified incubation contact time, the test material was removed and any growth, or lack thereof, beneath the test material surface is recorded.

The test system of a further assay is S. aureus. Described as above. It counts as cell-based. Particulars: aqueous solution applied to cotton fabric; observation over all plates.
Description: as §1, §2, §3

With `Oc1cccc2cccnc12` [8HQ, 8-hydroxyquinoline], the “clearing of plates in words, B. subtilis” value with B. subtilis was “cleared plates 2”.
With `O=S(=O)(O)O.Oc1cccc2cccnc12.Oc1cccc2cccnc12` [Quinolinol salt hemisulfate, 8-HQ hemisulfate], the “clearing of plates in words, S. aureus” value with S. aureus is reported as “Cleared all of”.
